The text below walks through data of patent publication US12060335B1, “2-(benzo[d]oxazol-2-yl)-N′-(3,5-dichlorobenzoyloxy)acetimidamide as an antimicrobial compound” (KING FAISAL UNIVERSITY, priority 2023, dated 2024).

The subject of one data set is Bacillus Cereus. In words: Agar plate disc-diffusion, antibacterial activity by measuring inhibition zone. It is filed as cell-based. The note with it: Gram positive, nutrient agar, 37° C., 48 hours. The protocol: (§1) The agar plate disc-diffusion method was applied. […] The discs were then placed onto the surface of agar plates (nutrient agar for bacteria and Sabouraud's dextrose agar for fungi) seeded with the test organism. Each plate contained 15 mL of the agar medium, previously seeded with 0.2 mL of the broth culture of each organism pregrown for 18 hours. The plates were incubated at 37° C. for 48 hours, and 72 hours for fungi. The inhibition zones was measured in mm. Discs impregnated with DMSO were used as a control, and its inhibition zone was subtracted from the tested compound actual inhibition zone.
In general terms: Agar diffusion results depend on both activity and mobility in agar.

The subject of the next data set is Staphylococcus aureus. Described as above. The data set is classed as cell-based. The note with it: Gram positive, nutrient agar, 37° C., 48 hours. The protocol:
as §1

The subject of a further data set is Pseudomonas aeruginosa. The data set is described as above. It is filed as cell-based. The note with it: Gram negative, nutrient agar, 37° C., 48 hours. The protocol: (§2) The agar plate disc-diffusion method was applied. Sterilized filter papers (6 mm in diameter) were wetted with 10 μL of a solution 2-(benzo[d]oxazol-2-yl)-N′-(3,5-dichlorobenzoyloxy)acetimidamide (3) to be tested, containing 10 mg/mL in DMSO, and the discs were allowed to air dry. The discs were then placed onto the surface of agar plates (nutrient agar for bacteria and Sabouraud's dextrose agar for fungi) seeded with the test organism. Each plate contained 15 mL of the agar medium, previously seeded with 0.2 mL of the broth culture of each organism pregrown for 18 hours. The plates were incubated at 37° C. for 48 hours, and 72 hours for fungi. The inhibition zones was measured in mm. Discs impregnated with DMSO were used as a control, and its inhibition zone was subtracted from the tested compound actual inhibition zone.

Another data set deals with Escherichia coli. Described as above. It is filed as cell-based. As to conditions: Gram negative, nutrient agar, 37° C., 48 hours. The protocol:
as §2

The test system of data set [1] is Chrysosporium keratinophilum. Kind of data set: Agar plate disc-diffusion, antifungal activity by measuring inhibition zone. It is filed as cell-based. As to conditions: Sabouraud's dextrose agar, 72 hours. The procedure: as §1
The subject of the next data set is Aspergillus flavus. The description is as above. As to conditions: Sabouraud's dextrose agar, 72 hours. It is filed as cell-based. The procedure: as §1
The next data set concerns different microbes. In words: Antimicrobial activity screen, overall statement. The data set is classed as cell-based. The note with it: against different microbes (bacteria and fungi of Tables 1 and 2). The procedure: as §2
Where [2] appears, read: A = concentration of comp. = 10,000 μL.
[3] abbreviates: B = concentration of comp. = 30,000 μL.
Where [4] appears, read: C = concentration of comp. = 50,000 μL.

In general, melting point refers to the temperature, or range, at which the solid turns liquid.

Take `O=C(O)c1cn(C2CC2)c2cc(N3CCNCC3)c(F)cc2c1=O` [Cip., ciprofloxacin, reference compound]: the inhibition zone amounted to 29 mm in the data set with Bacillus Cereus (setting [2]); 30 mm with Bacillus Cereus (setting [3]); 42 mm in the data set with Bacillus Cereus (C =); 43 mm in the data set on Staphylococcus aureus (setting [2]); 44 mm with Staphylococcus aureus (setting [3]); 53 mm in the data set on Staphylococcus aureus (setting [4]). The inhibition zone in the data set on Pseudomonas aeruginosa (setting [2]) was determined as 29 mm; in the data set on Pseudomonas aeruginosa (setting [3]), 30 mm; with Pseudomonas aeruginosa (C =), 53 mm; in the data set on Escherichia coli (setting [2]), 30 mm; in the data set on Escherichia coli (setting [3]), 39 mm; with Escherichia coli (setting [4]), 60 mm. Moreover, the inhibition zone in data set [1] (setting [2]) was 29 mm; in data set [1] (setting [3]), 30 mm; in data set [1] (setting [4]), 53 mm; in the data set on Aspergillus flavus (setting [2]), 29 mm; in the data set with Aspergillus flavus (setting [3]) it was 30 mm; with Aspergillus flavus (setting [4]), 42 mm.

Turning to `N/C(Cc1nc2ccccc2o1)=N\OC(=O)c1cc(Cl)cc(Cl)c1` [Compound 3, 2-(benzo[d]oxazol-2-yl)-N′-(3,5-dichlorobenzoyloxy)acetimidamide], the melting point lay in the range of 158 to 159 °C. The inhibition zone in the data set with Bacillus Cereus (setting [2]) is 20 mm. In addition, the inhibition zone in the data set with Bacillus Cereus (setting [3]) is recorded as 22 mm. The inhibition zone with Bacillus Cereus (C =) worked out at 30 mm. The compound further registered an inhibition zone in the data set with Staphylococcus aureus (setting [2]) of 19 mm. Further, the inhibition zone in the data set on Staphylococcus aureus (setting [3]) was 21 mm. In addition, the inhibition zone with Staphylococcus aureus (setting [4]) was 29 mm. Moreover, the inhibition zone with Pseudomonas aeruginosa (setting [2]) amounted to 25 mm. Besides, the inhibition zone in the data set on Pseudomonas aeruginosa (setting [3]) was 27 mm. In the data set with Pseudomonas aeruginosa (C =), the inhibition zone was determined as 43 mm. In the data set on Escherichia coli (setting [2]), this compound registered an inhibition zone of 26 mm. The compound further yielded an inhibition zone in the data set with Escherichia coli (setting [3]) of 34 mm. In addition, in the data set on Escherichia coli (setting [4]), the inhibition zone came to 46 mm. The compound further returned an inhibition zone in data set [1] (setting [2]) of 27 mm. Further, in data set [1] (setting [3]), the inhibition zone was found to be 29 mm. The inhibition zone in data set [1] (setting [4]) amounted to 49 mm. The same compound returned an inhibition zone with Aspergillus flavus (setting [2]) of 20 mm. In the data set on Aspergillus flavus (setting [3]), this compound returned an inhibition zone of 22 mm. Also, in the data set with Aspergillus flavus (setting [4]), the inhibition zone is 29 mm. In the data set with different microbes, the antimicrobial activities result is “excellent antimicrobial activities”.
